These are literature values, as cited in patent publication US12691078B2, “Stable compositions of functional ingredients and methods of making the same” (Nulixir Inc., priority 2021, dated 2026).

For orientation: logP means a log measure of how a compound divides between an organic and an aqueous phase.

The conditions of the first series: ethanol extraction of Golden Seal.
Take `COc1ccc2cc3[n+](cc2c1OC)CCc1cc2c(cc1-3)OCO2` [berberine]: the “solubility in ethanol as a function of water content” value is given as “decreases rapidly with water content”.

The conditions of a further series: reference solvents n-octanol and water; pH=7 unless stated otherwise; mostly given as approximate (~=).
Take `CC(C)=CCC[C@](C)(O[C@@H]1O[C@H](CO[C@@H]2O[C@H](CO)[C@@H](O)[C@H](O)[C@H]2O)[C@@H](O)[C@H](O)[C@H]1O)[C@H]1CC[C@]2(C)[C@@H]1[C@H](O)C[C@@H]1[C@@]3(C)CC[C@H](O[C@@H]4O[C@H](CO)[C@@H](O)[C@H](O)[C@H]4O[C@@H]4O[C@H](CO)[C@@H](O)[C@H](O)[C@H]4O)C(C)(C)[C@@H]3CC[C@]12C` [ginsenoside rb1]: the logP is on record as approximately −1. For `COc1nc2c(c(=O)n1C)n(C)c(=O)n2C` [methylliberine], the lipophilicity (logP) is recorded as approximately −0.083. On to `CC(C)=C[C@@H]1CO[C@]23C[C@]4(CO2)[C@H](CC[C@@H]2[C@@]5(C)CC[C@H](O[C@@H]6OC[C@H](O)[C@H](O[C@@H]7O[C@H](CO)[C@@H](O)[C@H](O)[C@H]7O)[C@H]6O[C@@H]6O[C@@H](CO)[C@H](O)[C@H]6O)C(C)(C)[C@@H]5CC[C@]24C)[C@H]3[C@@]1(C)O` [bacopasaponin C], for which the logP is approximately 2. `COc1cc2c(c(OC)c1OC)-c1c(cc(OC)c(OC)c1OC)C[C@](C)(O)[C@@H](C)C2` [(+)-schisandrin]: the logP was approximately 5.

For `CC(C)=C[C@H]1C[C@](C)(O)[C@@H]2[C@H]3CC[C@@H]4[C@@]5(C)CC[C@H](O[C@@H]6OC[C@H](O)[C@H](O[C@@H]7O[C@H](CO)[C@@H](O)[C@H](O)[C@H]7O)[C@H]6O[C@@H]6O[C@@H](CO)[C@H](O)[C@H]6O)C(C)(C)[C@@H]5CC[C@@]4(C)[C@@]34CO[C@@]2(C4)O1` [bacopaside X], the lipophilicity (logP) is recorded as approximately 2.2.

Consider `COc1cc(/C=C/c2ccccc2)oc(=O)c1` [5,6-dehydrokawain], for which the logP is recorded as approximately 2.9.

Regarding herinacine A, the logP is given as approximately 2.5. For the molecule `CC(C)=C[C@H]1C[C@](C)(O)[C@H]2[C@H]3CC[C@@H]4[C@@]5(C)CC[C@H](O[C@@H]6O[C@H](CO)[C@@H](O)[C@H](O[C@@H]7O[C@H](CO)[C@@H](O)[C@H](O)[C@H]7O)[C@H]6O[C@@H]6O[C@@H](CO)[C@H](O)[C@H]6O)C(C)(C)[C@@H]5CC[C@@]4(C)[C@@]34CO[C@@]2(C4)O1` [bacoside A3], the logP was approximately 2.1. For the molecule `N#C[C@@]1(O[C@@H]2O[C@H](CO)[C@@H](O)[C@H](O)[C@H]2O)C=C[C@@H](O)C1` [tetraphyllin B], the logP is given as approximately −2.5. In the case of schisandroside C, the lipophilicity (logP) is approximately 1.6.

Regarding bacopaside B, the logP is approximately 2.8.

As for `COc1cc2c(c(OC)c1OC)-c1c(cc(OC)c(OC)c1OC)C[C@](C)(O)[C@@H](C)C2` [schisandrol A], the logP is approximately 3.4. On to `COc1cc2c(c(OC)c1OC)-c1c(cc3c(c1OC)OCO3)CC(C)C(C)C2` (single isomer, unassigned; (-)) [(−)-schisandrin B], for which the logP is approximately 4. For `COc1cc2c(c(OC)c1OC)-c1c(cc(OC)c(OC)c1OC)C[C@H](C)[C@H](C)C2` [(−)-schisandrin A], the logP is approximately 3.6.

For `COc1cc([C@H]2Oc3cc(O)c4c(=O)c(O)c(-c5ccc(O)cc5)oc4c3O[C@@H]2CO)ccc1O` [rhodiolin], the logP is approximately 2. On to (R)-kawain, for which the logP is listed as approximately 2.7.

Regarding `CC1=C(CO)C(=O)O[C@@H]([C@@H](C)[C@H]2CC[C@H]3[C@@H]4C[C@H](Cl)[C@]5(O)[C@@H](O)C=CC(=O)[C@]5(C)[C@H]4CC[C@]23C)C1` [6a-chloro-5b-hydroxywithaferin A], the logP is on record as approximately 3.2. For the molecule `COc1ccc([C@@]23CCC(=O)C[C@@H]2N(C)CC3)cc1OC` [mesembrine], the lipophilicity (logP) is approximately 1.5.

With `COC1=CC(=O)O[C@@H](CCc2ccc3c(c2)OCO3)C1` [7,8-dihydromethysticin], the lipophilicity (logP) is approximately 2.2. For `COc1cc(/C=C\c2ccc(OC)c(O)c2)oc(=O)c1` [11-hydroxyyangonin], the logP is on record as approximately 2.2.

On to `COc1ccc(C23C=CC(O)CC2N(C)CC3)cc1OC` (stereo not drawn) [mesembrenol], for which the logP is reported as approximately 2.4.

In the case of `COc1c2c(cc3c1-c1c(cc4c(c1OC)OCO4)C[C@H](C)[C@H](C)C3)OCO2` [(−)-schisandrin C], the logP is given as approximately 3.5. For `COC1=CC(=O)OC(/C=C/c2ccc(OC)cc2)C1` (stereo not drawn) [5,6-dihydroyangonin], the logP was approximately 2.5. For `CC(=O)OC1C=CC(=O)N(C(=O)CCc2ccccc2)C1` (stereo not drawn) [pipermethystine], the logP was approximately 1.8. `COc1ccc([C@@]23C=CC(=O)C[C@@H]2N(C)CC3)cc1OC` [mesembrenone]: the logP was approximately 1.3. As for tortuosomine, the log partition coefficient (logP) is recorded as approximately 3.

In the case of `COc1ccc(CCc2cc(OC)cc(=O)o2)cc1` [7,8-dihydroyangonin], the log partition coefficient (logP) is approximately 2.9. For `CC(C)=CCC[C@](C)(O[C@@H]1O[C@H](CO)[C@@H](O)[C@H](O)[C@H]1O)[C@H]1CC[C@]2(C)[C@@H]1[C@H](O)C[C@@H]1[C@@]3(C)CC[C@H](O)C(C)(C)[C@@H]3[C@@H](O[C@@H]3O[C@H](CO)[C@@H](O)[C@H](O)[C@H]3O)C[C@]12C` [ginsenoside rg1], the logP was approximately 0.8. For hericerin, the logP is given as approximately 6.4.
